# Data taken from US6428997B1, “Aminopeptidase derived from Bacillus licheniformis and process for preparation of natural type proteins” (LG Chemical Ltd., priority 1997, dated 2002).
# What was measured:
# aminopeptidase = experiment: Effect of chemical materials affecting enzyme activity of aminopeptidase; format: biochemical, Bacillus licheniformis
# Protocol: (§1) In order to examine chemical materials affecting enzyme activity of aminopeptidase, enzyme activities of aminopeptidase treated for 2 hours with dithiotreitol, iodoacetic acid, ortho-phenanthroline and EDTA as 1, 5 and 20 mMJ respectively were measured.
# [1] = target: T1, aminopeptidase of Bacillus licheniformis ATCC 12759 (N-terminal sequence SEQ ID NO: 3) (Bacillus licheniformis, UniProt Q65DH7); experiment: Effect of chemical materials on aminopeptidase activity (2 h treatment, leucine-p-nitroanilide substrate); format: biochemical; settings: treated 2 hours, 0 mM = 100, read-out: relative activity
# T1 sequence (Q65DH7 43-449 limits assumed): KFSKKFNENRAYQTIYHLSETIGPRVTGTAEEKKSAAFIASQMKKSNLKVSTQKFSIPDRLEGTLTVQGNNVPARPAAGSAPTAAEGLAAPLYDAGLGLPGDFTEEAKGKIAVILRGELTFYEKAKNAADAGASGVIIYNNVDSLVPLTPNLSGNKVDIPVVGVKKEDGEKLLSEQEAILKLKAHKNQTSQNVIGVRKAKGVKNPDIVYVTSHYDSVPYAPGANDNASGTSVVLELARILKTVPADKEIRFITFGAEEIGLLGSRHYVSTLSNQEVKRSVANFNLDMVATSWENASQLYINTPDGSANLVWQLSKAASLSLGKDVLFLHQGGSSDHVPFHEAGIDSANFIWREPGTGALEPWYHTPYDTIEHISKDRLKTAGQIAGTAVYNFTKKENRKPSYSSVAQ
# Protocol: Aminopeptidase activities of this invention were measured by the method of Pfleiderer (Pfleiderer, Meth. Enzymol., 19, 514-521, 1970). Precisely, 1 U of enzyme activity defines the enzyme quantity changing 1 absorbance at 405 nm which is measured by the process adding aminopeptidase in 1 ml solution of […] Tris-Cl (pH 8.0) and 2 mM leucine-p-nitroanilide (Sigma, USA), incubating at 37° C. for 1 min, then adding 100 μl of 70% acetic acid to stop the reaction. At that time leucine-p-nitroanilide was dissolved in dimethylsulfoxide (DMSO) to make 100 mM solution.
# as §1
# [2] = Moore, Endocrinology 1988; cited from earlier work
# [3] = aminopeptidase treated for 2 hours with 1 mM chemical
# [4] = aminopeptidase treated for 2 hours with 5 mM chemical
# [5] = aminopeptidase treated for 2 hours with 20 mM chemical
Molecule,effect on aminopeptidase activity (in words) (aminopeptidase),relative activity (%) (aminopeptidase; [3]),relative activity (%) (aminopeptidase; [4]),relative activity (%) (aminopeptidase; [5]),"activity at 1000 µM ([1]; pH 8, 1 mM chemical)","activity at 5000 µM ([1]; pH 8, 5 mM chemical)","activity at 20000 µM ([1]; pH 8, 20 mM chemical)",biological activity compared with natural type HGH [2]
"O[C@H](CS)[C@H](O)CS (racemic) [dithiotreitol, dithiothreitol]",inhibited,0.8%,0%,0%,–,–,–,–
O=C(O)CI [iodoacetic acid],inhibited,98.1%,104.2%,0%,–,–,–,–
"O=C(O)CN(CCN(CC(=O)O)CC(=O)O)CC(=O)O [EDTA, ethylenediaminetetraacetic acid]",inhibited partially,93.8%,83.4%,66.3%,–,–,–,–
"c1cnc2c(c1)ccc1cccnc12 [ortho-penanthroline, ortho-phenanthroline]",inhibited,91.9%,86.8%,4.7%,91.9%,86.8%,4.7%,–
methionyl HGH: recombinant human growth hormone of 192 amino acids with Met-Phe-Pro-Thr sequence at the N-terminus,–,–,–,–,–,–,–,the same activity with that of natural type HGH
